Laboratory results as given in patent US6713506B2, “Tea polyphenol esters and analogs thereof for cancer prevention and treatment” (University of South Florida, priority 2000, dated 2004).
“Also recorded” adds a separate entry of the source.

Experiments:
[1] = target: T1, proteasomal chymotrypsin-like activity in Jurkat T cell extract (Homo sapiens, UniProt P28074); test: Proteasome chymotrypsin-like activity in Jurkat T cell free extract; type: biochemical
T1 construct: endogenous in cells; host or cells: Jurkat T cells (whole cell extract or intact cells)
Method: FIG. 9. Inhibition of the proteasome activity by tannic acid using a cell free extract. A). The whole cell extract (6.0 μg) from Jurkat T cells is incubated for 90 min at 37° C. with 20 μM of a fluorogenic peptide substrate, Suc-Leu-Leu-Val-Tyr-AMC for the chymotrypsin-like activity, Z-Leu-Leu-Glu-AMC for peptidyl-glutamyl peptide-hydrolyzing (PGPH) activity, and Z-Gly-Gly-Arg-AMC for the trypsin-like activity, in 100 μl of the assay buffer with (filled bars) or without (empty bars) 1 μg/ml of tannic acid. The hydrolyzed AMCs are quantified as described in FIG. 2. B). […] Experiment is performed as described in FIG. 9A.
Inhibition of the proteasome activity with cell free extracts by tea polyphenols—The whole cell extract (3.5 μg) from Jurkat T cells is incubated for 90 min at 37° C. with 20 μM of a fluorogenic peptide substrate, Suc-Leu-Leu-Val-Tyr-AMC (for the chymotrypsin-like activity), Z-Leu-Leu-Glu-AMC [peptidyl-glutamyl peptide-hydrolyzing (PGPH) activity; Calbiochem], and Z-Gly-Gly-Arg-AMC (for the trypsin-like activity; Bachem), in 100 μl of the assay buffer with or without 10 μM EGCG or EGC. The hydrolyzed AMCs are quantified as described above.

[2] = target: T2, proteasome chymotrypsin-like activity in living Jurkat cells (Homo sapiens, UniProt P28074); test: Proteasome chymotrypsin-like activity in living Jurkat T cells; type: cell-based
T2 construct: endogenous in cells; host or cells: Jurkat T cells (whole cell extract or intact cells)
Method: FIG. 10. Inhibition of the chymotrypsin-like activity by tannic acid in intact Jurkat T cells. Intact Jurkat T cells (1×10^5 cells/ml/well) are cultured in 24-well plates. These cells are first incubated for 12 h with various concentrations of tannic acid as indicated, followed by an additional 2 h-incubation with a fluorogenic peptide substrate, Suc-Leu-Leu-Val-Tyr-AMC for the chymotrypsin-like activity. Then, cell medium (200 μl per sample) is collected and used for measurement of free AMCs.
Inhibition of the proteasome activity in living cells by tea polyphenols—To measure inhibition of the chymotrypsin-like activity in living tumor cells, Jurkat T (1×10^5 cells/ml/well), MCF7 or PC-3 cells (1×10^4 cells/ml/well) are cultured in 24-well plates. These cells are first incubated for 12 h with various concentrations of EGCG, EGC, β-lactone or LLnL, followed by an additional 2 h-incubation with fluorogenic peptide substrates, Suc-Leu-Leu-Val-Tyr-AMC for the chymotrypsin-like activity and Z-Gly-Gly-Arg-AMC for the trypsin-like activity. After that, cell medium (200 μl per sample) is collected and used for measurement of free AMCs.

[3] = test system: p27, IκB-α, ubiquitinated proteins, Bax in Jurkat T cells; test: Western blot of proteasome substrates in Jurkat T cells; type: cell-based, human; conditions: for levels of p27: intact Jurkat T cells, 1 or 10 μM, 12 h
Method: FIG. 5. Western blot analysis. A, Jurkat T cells are treated with 1 or 10 μM of EGCG or EGC for 12 h, or B, C, 25 μM of EGCG for various times, followed by Western blot assay using specific antibodies to p27, IκB-α, ubiquitin or actin, as indicated. MWs of IκB-α and actin are 40 and 43 kDa, respectively. The band of 56 kDa, indicated by an arrow in (B), is an ubiquitinated or phosphorylated form of IκB-α. The bands indicated in (C) are ubiquitin-containing proteins. D, LNCaP cells are treated with 1 or 10 μM of EGCG for 12 h. Western bot is performed as described above. E, F, Jurkat T cells are pretreated with 10 μg/ml cycloheximide for 2 hr, followed by co-incubation with 1 or 10 μM of EGCG for 8 or 12 hr as indicated. The p70 is a putative ubiquitinated p27-containing complex (An et al., 1998, Cell Death Differ 5: 1062-75).
FIG. 11. Western blot assay. Western blot assay is performed using specific antibodies to p27^Kip, Bax, poly(ADP-ribose) polymerase (PARP), or actin. Jurkat T cells are treated with 50 μg/ml of tannic acid for 4, 12 or 24 h. Cells are harvested and lysated using the whole lysis buffer (50 mM Tris-HCl, pH 8.0, 5 mM EDTA, 150 mM NaCl, 0.5% NP-40, 0.5 mM PMSF, and 0.5 mM DTT). Cell lysates (70 μg) are separated on a sodium dodecyl sulfate-polyacrylamide gel electrophoresis (SDS-PAGE), followed by Western blot analysis.
Western blot analysis—Western blot assay is performed as described previously (An et al., (1998) Cell Death Differ 5(12), 1062-75) using specific antibodies to p27^Kip (monoclonal; Pharmingen), IκB-α (polyclonal; Santa Cruz), ubiquitin (polyclonal; Sigma) or actin (polyclonal; Santa Cruz). In brief, Jurkat T or LNCaP cells are treated with EGCG or EGC in dose-response or time-dependent manner. Cells are harvested and lysated using the whole lysis buffer. Cell lysates (70 μg) are separated by a sodium dodecyl sulfate-polyacrylamide gel electrophoresis (SDS-PAGE) and then, electrophoretically transferred to a nitrocellulose membrane. Immunocomplexes are detected using the ECL detection reagents kit (Amersham, Piscataway, N.J.).

[4] = Jurkat T cells, 25 μM EGCG, various times
[5] = cycloheximide-pretreated Jurkat T cells, 10 μM

SMILES	inhibition of proteasomal chymotrypsin-like activity in Jurkat T cell extract (in words) [1]	inhibition of chymotrypsin-like activity in living/intact Jurkat cells (in words) [2]	levels of p27 [3]	inhibition of proteasomal chymotrypsin-like activity ([1]; 10 μM, Jurkat T cell extract) [%]	inhibition of chymotrypsin-like activity ([2]; 10 μM, living Jurkat cells) [%]	IC50 ([2]; 12 h preincubation) [µM]	levels of IκB-α [3, 4]	levels of ubiquitinated proteins [3, 4]	levels of IκB protein [3, 5]	levels of p27 protein [3, 5]	level of p70 (putative ubiquitinated p27-containing protein) ([3]; cycloheximide-pretreated Jurkat T cells, co-incubation)	induction of IκB expression compared with LLnV ([3]; cycloheximide-pretreated Jurkat T cells, same concentration (10 μM))	p27Kip and Bax levels ([3]; Jurkat T cells, tannic acid 50 μg/ml, 4, 12 or 24 h)
Oc1cc(O)c2c(c1)O[C@H](c1cc(O)c(O)c(O)c1)[C@H](O)C2 [EGC, (−)-epigallocatechin]	little effect	much less effect	does not										
O=C(O[C@@H]1Cc2c(O)cc(O)cc2O[C@@H]1c1cc(O)c(O)c(O)c1)c1cc(O)c(O)c(O)c1 [EGCG, (−)-epigallocatechin-3-gallate]	most potent proteasome inhibitor among all the tested polyphenols	inhibitable	greatly increases	~70	24	18	increases	increases	increases	dramatically increased	increase	even greater than that of the proteasome inhibitor LLnV	
O=C(OC[C@H]1O[C@@H](OC(=O)c2cc(O)c(O)c(OC(=O)c3cc(O)c(O)c(O)c3)c2)[C@H](OC(=O)c2cc(O)c(O)c(OC(=O)c3cc(O)c(O)c(O)c3)c2)[C@@H](OC(=O)c2cc(O)c(O)c(OC(=O)c3cc(O)c(O)c(O)c3)c2)[C@@H]1OC(=O)c1cc(O)c(O)c(OC(=O)c2cc(O)c(O)c(O)c2)c1)c1cc(O)c(O)c(OC(=O)c2cc(O)c(O)c(O)c2)c1 [tannic acid]	Dose-dependent inhibition; also recorded: inhibited by tannic acid in a dose-dependent manner	inhibition											induction
